Assay results: patent US11028138B2, “Compositions and methods for using actin-based peptides to modulate cellular bioactivity and cellular susceptibility to intracellular pathogens” (priority 2016, dated 2021)
pIC50: −log10 of the molar value.

What was measured:
HIV-1 [1] = details: pretreatment; cited from earlier work
HIV-1 [2] = details: dosages that did not affect CD4 T cell activation or induce cytotoxicity; cited from earlier work
Influenza A virus (IAV) [3] = details: vs solvent-treated control mice; cited from earlier work
Influenza A virus (IAV) [4] = details: A549 cells; read-out: IC50, reduction of viral replication; cited from earlier work
[5] = tested on: Human T lymphoblast cell A3.01; experiment: N10-mediated cell killing, Propidium iodide and FITC-Annexin V staining, flow cytometry; format: cell-based; details: 10 uM; A3.01 cells
Experimental: FIG. 8: Human T lymphoblast cell A3.01 was treated with N10 (10 uM). N10-mediated cell killing was monitored by staining of dead cells with Propidium iodide and FITC-labelled Annexin V. Cells were analyzed by flow cytometry.
N10-mediated cell killing was monitored by staining of dead cells with Propidium iodide and FITC-labelled Annexin V. Cells were analyzed by flow cytometry.
• 5) Culture human A3.01 cells at 5×10^5 cells/ml • 6) Add peptide N10 to the cell to a final concentration of 10 uM • 7) Continue to culture cell at 37° C., maintain cell density below 1×10^6 cells/ml 8) Take out 1-2×10^5 cells, put on ice, add P.I., and FITC—Annexin V as recommended by the reagent manufacturer for dead/apoptotic cell staining. • 9) Analyzed the staining by flow cytometer.

HIV [6] = experiment: HIV infection of resting CD4 T cells, viral p24 release; format: cell-based
Experimental: FIG. 7: Peptide N9 promotes HIV infection of resting CD4 T cells. Resting CD4 T cells were treated with N9, and then infected with HIV for 2 hours. Following infection, cells were washed, and culture in the absence of T cell activation and N9. Viral p24 release was measured. As controls, cells were culture with the addition of IL-7 (daily addition), or with a scrambled peptide, or only in the culture medium.
The ability of N9 to stimulate HIV infection of blood resting CD4 T cells was also tested. Resting CD4 T cells are relatively resistant to HIV infection. The lack of activity in the cortical actin limits viral early steps in the infection of resting T cells (Yoder et aI., 2008).

HIV-1 [7] = details: Rev-CEM-GFP; 2 h infection; 2 days post infection; viable (low PI) cells; HIV alone 0.79% (N7 experiment), 1.95% (N9 experiment)
Experimental: (A) The HIV Rev-dependent indicator cell, Rev-CEM-GFP, was not infected (+Cell) or infected with HIV-1 (+HIV), or pre-treated with peptide N7, and then infected with HIV-1 (N7+HIV). Following infection for 2 hours, cells were washed to remove the virus and the peptide. Viral replication was measured at 2 days post infection by flow cytometry. […] PI, propidium iodide, was added before flow cytometry for cytotoxicity control. GFP+ cells were counted only when the cells are viable (low PI staining). (B) Effects of peptide N9 were similarly measured.
The HIV Rev-dependent indicator cell, Rev-CEM-GFP, was not infected (+Cell) or infected with HIV-1 (+HIV), or pre-treated with peptide N7, and then infected with HIV-1 (N7+HIV). Following infection for 2 hours, cells were washed to remove the virus and the peptide. Viral replication was measured at 2 days post infection by flow cytometry.
PI, propidium iodide, was added before flow cytometry for cytotoxicity control. GFP+ cells were counted only when the cells are viable (low PI staining).

HIV [8] = experiment: HIV DNA synthesis, 2-LTR circles and DNA integration in CEM-SS T cells and blood resting CD4 T cells; format: cell-based; details: for HIV DNA synthesis / HIV nuclear migration (2-LTR circles): peptide during 2 h infection; for HIV DNA integration: resting CD4 T cells, no T cell activation
Experimental: (§1) FIG. 6: Peptide N7 and N9 enhance HIV DNA synthesis, nuclear migration, and integration. (A) CEM-SS T cells were treated with N7 during HV infection for 2 hours, washed, and then analyzed for viral DNA synthesis and 2-LTR circles, a marker for HIV nuclear migration. (B) Blood resting CD4 T cells were similar infected, washed, and cultured without T cell activation. Viral DNA synthesis and DNA integration were analyzed.
as §1, with “CEM-SS” for “FIG. 6: Peptide N7 and N9 enhance HIV DNA synthesis, nuclear migration, and integration. (A) CEM-SS”, “migration.” for “migration. (B)”

actin = experiment: Actin polymerization and depolymerization by FITC-phalloidin staining in resting CD4 T cells; format: cell-based
Experimental: (§2) FIG. 5: Peptide N7 and N9 modulate cell signal transduction and chemotactic cofilin and actin activity. (A) Resting memory CD4 T cells were treated with N7 for a time course, cofilin phosphorylation was measured by Western Blot. Total cofilin and GAPDH was also measured for loading control. (B) Resting CD4 T cells were treated with N9, and actin polmerization and depolymerization were measured by FITC-phalloidin staining.
(§3) Resting memory CD4 T cells were treated with N7 for a time course, and cofilin phosphorylation was measured by Western Blot. Total cofilin and GAPDH was also measured for loading control (FIG. 5A). Resting CD4 T cells were treated with N9, and actin polmerization and depolymerization were measured by FITC-phalloidin staining (FIG. 5B).

surface CXCR4 receptors = experiment: Surface receptor staining and flow cytometry after peptide stimulation (CXCR4); format: cell-based, human; details: T cells exposed to peptide, 10 uM, 5 to 120 min
Experimental: (§4) FIG. 4: Up-regulation of cell surface receptors by N7. CEM-SS T cells or blood resting CD4 T cells were stimulated with peptide N7 for a time course. Effects on surface CD4, CXCR4 density were measured by anti-CD4 or anti-CXCR4, followed by flow cytometry.
(§5) • 1) Culture human CEM-SS T cells at 5×10^5 cells/ml • 2) Add peptide N7 to the cell to a final concentration of 10 uM at various times from 5 min to 120 min (e. g. 5, 10, 15, 30, 45, 60, 120 min). • 3) Take out 1-2×10^5 cells, put on ice, perform routine surface staining using FITC-, PE- or PE-cy5-labelled specific antibodies against cell receptors as recommended by the reagent manufacturer for cell surface staining. • 4) Analyzed the staining by flow cytometer.

cofilin = experiment: Cofilin phosphorylation by Western Blot in resting memory CD4 T cells; format: cell-based; details: time course
Experimental: as §2, §3

surface CD4 receptor = experiment: Surface receptor staining and flow cytometry after peptide stimulation (CD4); format: cell-based, human; details: T cells exposed to peptide, 10 uM, 5 to 120 min
Experimental: as §4, §5

C=C1[C@@H](C)[C@H]2[C@H](Cc3ccccc3)NC(=O)[C@]23[C@H](OC(C)=O)/C=C/[C@@](C)(O)C(=O)[C@@H](C)C/C=C/[C@H]3[C@@H]1O [CCD, cytochalasin D]
Reduction of nuclear accumulation of late RT products (HIV-1 [1]): 25 fold

O=C1CSC(c2cccc(Br)c2)N1c1cc(Cl)ccc1O (stereo not shown) [CK-548]
HIV-1 replication (HIV-1 [2]): dramatically reduced

CCN(CC)CCCC(C)Nc1nc(C)cc(Nc2ccc3nc(C)cc(N)c3c2)n1 (stereo not shown) [NSC23766]
Body weights (Influenza A virus (IAV) [3]): increased | Survivability (Influenza A virus (IAV) [3]): higher | Titer of IAV in lung tissue (Influenza A virus (IAV) [3]): reduce titer | pIC50 (Influenza A virus (IAV) [4]): 4.66

RRRRRRRR(G/A)0-20AGRDLTDYLMKILTERGYSF [Peptide N10]
Cell killing [5]: killing of T cells

RRRRRRRR(G/A)0-20HTVRIYEGYALRHAILRLDL [Peptide N9]
Stimulation of viral infection compared with IL-7 (administered daily) (HIV [6]; early time): more potent | HIV infection of resting T cells (p24 release) (HIV [6]; single-dosage treatment prior to infection, no T cell activation or cytokine stimulation): drastically stimulated | HIV infection, percentage of GFP+ cells (HIV-1 [7]): 14.07% | HIV DNA synthesis (HIV [8]): enhance | HIV nuclear migration (2-LTR circles) (HIV [8]): enhance | HIV DNA integration (HIV [8]): enhance | Actin polymerization/depolymerization (actin): modulate

RRRRRRRR(G/A)0-20QIMFETENTPAMYVAIQAVL [Peptide N7]
HIV infection, percentage of GFP+ cells (HIV-1 [7]): 15.5% | HIV DNA synthesis (HIV [8]): enhance | HIV nuclear migration (2-LTR circles) (HIV [8]): enhance | HIV DNA integration (HIV [8]): enhance | Surface CXCR4 receptor density (surface CXCR4 receptors): drastically up-regulate | Cofilin activation (cofilin): briefly triggers cofilin activation | Surface CD4 receptor density (surface CD4 receptor): moderate up-regulation | Actin polymerization/depolymerization (actin): actin depolymerization
